Earlier results in patent US20120321577A1, “Skin-whitening composition containing tyrosinase inhibitor” (priority 2011, published 2012).

Conditions: conventionally

SMILES: NC[C@H]1CC[C@H](C(=O)O)CC1 [tranexamic acid]
- concentration needed to give whitening effect: higher than 3%
